Non-standard residues stand in square brackets, D forms with d. Residues, ends and D or L forms follow the SMILES beside them.
molecular target: T1, Galanin receptor type 2 (Rattus norvegicus, UniProt O08726)
T1 sequence (O08726 whole entry): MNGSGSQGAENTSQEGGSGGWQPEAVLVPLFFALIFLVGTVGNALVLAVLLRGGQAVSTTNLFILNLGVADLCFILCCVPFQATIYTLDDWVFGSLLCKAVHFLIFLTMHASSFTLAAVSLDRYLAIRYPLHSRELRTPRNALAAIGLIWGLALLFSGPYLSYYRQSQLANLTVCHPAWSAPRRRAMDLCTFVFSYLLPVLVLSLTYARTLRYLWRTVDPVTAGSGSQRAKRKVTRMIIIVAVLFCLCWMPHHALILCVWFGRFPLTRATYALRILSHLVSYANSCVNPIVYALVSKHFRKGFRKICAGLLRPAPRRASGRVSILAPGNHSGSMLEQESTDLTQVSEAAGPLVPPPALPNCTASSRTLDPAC

| Compound | Ki |
| --- | --- |
| CC(C)C[C@H](NC(=O)[C@H](CC(C)C)NC(=O)[C@@H](Cc1c[nH]c2ccccc12)NC(=O)[C@H](Cc1ccccc1)NC(=O)[C@@H](Cc1c[nH]c2ccccc12)NC(=O)[C@H](CCC(N)=O)NC(=O)[C@H](CCC(N)=O)NC(=O)[C@@H]1CCCN1C(=O)[C@H](CCCCN)NC(=O)[C@@H]1CCCN1C(=O)[C@@H](CCCNC(=N)N)NC(=O)[C@@H]1CCCN1C(=O)CNC(=O)[C@H](CC(C)C)NC(=O)[C@H](CC(C)C)NC(=O)[C@H](Cc1ccc(O)cc1)NC(=O)CNC(=O)[C@H](C)NC(=O)[C@H](CO)NC(=O)[C@H](CC(N)=O)NC(=O)[C@H](CC(C)C)NC(=O)[C@@H](NC(=O)[C@H](Cc1c[nH]c2ccccc12)NC(=O)CN)[C@@H](C)O)C(N)=O [Gal(1-13)-Std I] (H-GWTLNSAGYLLGP[dR]PKPQQ[dW]F[dW]LL-NH2) | 9.1 nM |
| H-ELEPEDEARPGGFDRLQSQDKAIRTIMEFLAFLHLKEAGAL-NH2 [GMAP (1-41)] | 840 nM |
| H-GWTLNSAGYLLGPPPALALA-NH2 [M40] | 18 nM |
